This is an account of results in BindingDB's records for doi:10.1016/j.ejmech.2013.01.009 (Fudan University, 2013).

For this assay, the target named is Signal transducer and activator of transcription 3 (Homo sapiens, UniProt P40763). Briefly: Inhibition of STAT3 in IL-6-stimulated human HepG2 cells treated for 1 hr prior to IL-6 challenge measured after 5.5 hrs by luciferase reporter gene assay. (Reporter assays use an easily measured gene product as a stand-in for the process of interest.)

As usually defined, the IC50 is the concentration at which inhibition is half-maximal.

Sequence of Signal transducer and activator of transcription 3 (P40763 whole entry): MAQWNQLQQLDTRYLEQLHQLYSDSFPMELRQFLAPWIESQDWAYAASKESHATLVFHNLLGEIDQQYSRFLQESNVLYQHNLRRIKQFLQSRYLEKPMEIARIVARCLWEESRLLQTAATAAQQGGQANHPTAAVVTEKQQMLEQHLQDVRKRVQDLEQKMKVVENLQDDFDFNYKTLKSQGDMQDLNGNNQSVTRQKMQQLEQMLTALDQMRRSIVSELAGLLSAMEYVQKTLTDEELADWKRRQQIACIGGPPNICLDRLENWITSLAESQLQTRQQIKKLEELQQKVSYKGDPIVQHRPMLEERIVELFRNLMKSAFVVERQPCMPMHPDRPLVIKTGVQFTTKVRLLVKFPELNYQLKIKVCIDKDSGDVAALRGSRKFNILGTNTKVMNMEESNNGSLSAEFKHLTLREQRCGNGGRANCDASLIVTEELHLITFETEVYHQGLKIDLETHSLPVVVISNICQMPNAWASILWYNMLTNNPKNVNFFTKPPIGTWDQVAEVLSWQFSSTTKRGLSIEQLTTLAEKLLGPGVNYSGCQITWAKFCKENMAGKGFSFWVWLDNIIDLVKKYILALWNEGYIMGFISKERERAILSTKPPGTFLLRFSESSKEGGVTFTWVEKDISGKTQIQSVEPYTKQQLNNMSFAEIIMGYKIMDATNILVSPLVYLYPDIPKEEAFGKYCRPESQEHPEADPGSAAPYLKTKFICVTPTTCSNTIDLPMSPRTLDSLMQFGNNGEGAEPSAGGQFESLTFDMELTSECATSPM

`CCC(Sc1nc2ccc(NC(=O)c3ccc(OC)cc3)cc2s1)C(=O)Nc1ccc(Br)cc1` (stereo unspecified): the IC50 amounted to 3.57 µM.
